Broadly, the MIC99 is the lowest concentration that inhibits either 99% of growth or 99% of the strains tested, depending on the study. Low readings indicate higher susceptibility, high ones lower susceptibility.

Values after ≈ are worked out from the molar mass of the structure shown.

Series [1] can be described thus: Cytotoxicity against mouse RAW264.7 cells assessed as growth inhibition at 50 ug/ml after 48 hrs by MTT assay relative to control. The format is cell-based. Conditions: read-out: GI. For orientation: Tetrazolium dyes change colour on reduction, which living cells bring about.
The subject of series [2] is Mycobacterium tuberculosis. Briefly: Antitubercular activity against Mycobacterium tuberculosis H37Rv after 7 days by Alamar blue assay. The format is functional. To be noted: 168 h. A general note: Resazurin is reduced to fluorescent resorufin, in cell work by metabolically active cells.

With `O=C(NCc1ccccc1Cl)c1ccccc1-n1cc2ccccc2n1`, the inhibition at 48 h, 50 ug/ml in series [1] turned out to be 23.7%. For the same molecule, the MIC99 in series [2] was found to be 10.6 µM (≈ 3.83 µg/mL).
On to `O=C(Nc1ccccc1)c1ccccc1-n1cc2ccccc2n1`, for which the inhibition at 48 h, 50 ug/ml in series [1] was 39.6%. In series [2], the MIC99 came out at 15.8 µM (≈ 4.96 µg/mL).
For `Cc1ccc(CNC(=O)c2ccccc2-n2cc3ccccc3n2)cc1`, in that order: 34.5% and 9.16 µM (≈ 3.13 µg/mL).
In the case of `CCCCNC(=O)c1ccccc1-n1cc2ccccc2n1`, the MIC99 in series [2] was 85.3 µM (≈ 25 µg/mL).
For the molecule `O=C(Nc1ccccn1)c1ccccc1-n1cc2ccccc2n1`, the inhibition at 48 h, 50 ug/ml in series [1] stood at 31.8%. This molecule displayed an MIC99 in series [2] of 19.9 µM (≈ 6.26 µg/mL).
As to `NNC(=O)c1ccncc1` [ISONIAZID], the MIC99 in series [2] is 0.4 µM (≈ 0.0549 µg/mL).
`CC[C@@H](CO)NCCN[C@@H](CC)CO` [ETHAMBUTOL]: in series [2], the MIC99 came out at 7.6 µM (≈ 1.55 µg/mL).
With `COc1ccc(NC(=O)c2ccccc2-n2cc3ccccc3n2)cc1`, the MIC99 in series [2] turned out to be 36.4 µM (≈ 12.5 µg/mL).
Still for that read-out and setting: the value for `O=C(Nc1ccccc1O)c1ccccc1-n1cc2ccccc2n1` was 38 µM (≈ 12.5 µg/mL); that for `Cc1ccnc(NC(=O)c2ccccc2-n2cc3ccccc3n2)c1` was 38.1 µM (≈ 12.5 µg/mL).
Molecule `CO[C@H]1/C=C/O[C@@]2(C)Oc3c(C)c(O)c4c(O)c(c(/C=N/N5CCN(C)CC5)c(O)c4c3C2=O)NC(=O)/C(C)=C\C=C\[C@H](C)[C@H](O)[C@@H](C)[C@@H](O)[C@@H](C)[C@H](OC(C)=O)[C@@H]1C` [RIFAMPIN] gave an MIC99 in series [2] of 0.5 µM (≈ 0.411 µg/mL).
Regarding `O=C(NCc1ccccc1)c1ccccc1-n1cc2ccc(Cl)cc2n1`, in series [1], the inhibition at 48 h, 50 ug/ml was 30.6%. For the same molecule, the MIC99 in series [2] was 17.3 µM (≈ 6.26 µg/mL).
`O=C(Nc1ccc(F)cc1)c1ccccc1-n1cc2ccccc2n1` showed an MIC99 in series [2] of 37.8 µM (≈ 12.5 µg/mL).
With `O=C(NCc1ccc(Cl)cc1)c1ccccc1-n1cc2ccccc2n1`, the inhibition at 48 h, 50 ug/ml in series [1] is 28.1%. Further, the MIC99 in series [2] stood at 8.66 µM (≈ 3.13 µg/mL).
For `O=C(NCCc1c[nH]c2ccccc12)c1ccccc1-n1cc2ccccc2n1`, in that order: 18.8% and 16.4 µM (≈ 6.25 µg/mL).
As for `O=C(NCc1ccccc1)c1ccccc1-n1cc2cc3c(cc2n1)OCO3`, the inhibition at 48 h, 50 ug/ml in series [1] amounted to 22.9%. This molecule had an MIC99 in series [2] of 4.2 µM (≈ 1.56 µg/mL).
Turning to `O=C(NCc1ccccc1)c1ccccc1-n1cc2cc(Br)ccc2n1`, the inhibition at 48 h, 50 ug/ml in series [1] turned out to be 40.5%. This molecule also displayed an MIC99 in series [2] of 7.72 µM (≈ 3.14 µg/mL).
As for `O=C(NC1CCCCC1)c1ccccc1-n1cc2ccccc2n1`, in series [2], the MIC99 was determined as 78.4 µM (≈ 25 µg/mL).
Still for that read-out and setting: with `COc1ccc(CNC(=O)c2ccccc2-n2cc3ccccc3n2)cc1` the figure was 35 µM (≈ 12.5 µg/mL); with `CC(C)(C)NC(=O)c1ccccc1-n1cc2ccccc2n1`, 42.7 µM (≈ 12.5 µg/mL).
Regarding `COc1cc(NC(=O)c2ccccc2-n2cc3ccccc3n2)cc(OC)c1OC`, the inhibition at 48 h, 50 ug/ml in series [1] was 32.1%. This molecule also had an MIC99 in series [2] of 7.75 µM (≈ 3.13 µg/mL).
Regarding `O=C(NCc1ccccc1)c1ccccc1-n1cc2ccc(Br)cc2n1`, the MIC99 in series [2] stood at 56.4 µM (≈ 22.9 µg/mL).
As to `O=C(NCc1ccccc1)c1ccccc1-n1cc2ccccc2n1`, in series [1], the inhibition at 48 h, 50 ug/ml was 31.6%. Further, in series [2], the MIC99 was 19.1 µM (≈ 6.26 µg/mL).
As to `O=C(NCc1ccc(F)cc1)c1ccccc1-n1cc2ccccc2n1`, in series [2], the MIC99 was 36.3 µM (≈ 12.6 µg/mL).
On to `Cc1ccc(NC(=O)c2ccccc2-n2cc3ccccc3n2)c(C)c1`, for which the inhibition at 48 h, 50 ug/ml in series [1] is 36.7%. The molecule also had an MIC99 in series [2] of 18.3 µM (≈ 6.25 µg/mL).

The values above are taken from ChEMBL document CHEMBL4004872, “A robust synthesis of functionalized 2H-indazoles via solid state melt reaction (SSMR) and their anti-tubercular activity” (Bioorg Med Chem Lett, 2017).
